For series [1], the system named is stereotypies caused in a rat by amphetamine. Kind of series: antagonism of stereotypies caused in a rat by amphetamine, 10 mg/kg intravenous (Arz. Forsch. 11, 932-938, 1961). The note with it: sc. Format: in vivo.
In series [2] the test system is rat. Kind of series: kinetics of the cataleptigenic effect. The note with it: after subcutaneous injection. It is filed as in vivo. As for the experimental part:
(§1) In another test, the inhibitor doses 50 of the compound were evaluated according to Europ. J. Pharm. 50, pp. 291-300 (1978), the compound being administered at different times (15, 30, 60, 120 and 360 minutes) prior to administration of the agonistic agent, in this case apomorphine, in a dose of 0.5 mg/kg subcutaneous. It is thus possible to judge the power of the antagonism produced by the compound at those different times and also to evaluate the duration of the effect of the compound. […] Catalepsy appeared in fact, 11 minutes after subcutaneous injection of the compound and lasted for more than 5 hours and up to 12 hours in a rat, depending on the method of observation of the phenomenon.

A further series can be described thus: partition coefficient. It is filed as physicochemical.
Another series relates to vigilance. The series can be described thus: vigilance of treated animals at higher neuroleptic doses. It is filed as in vivo. The note with it: higher neuroleptic doses which reduce motor function. On the procedure: The compound of the invention has the pharmacological characteristics of a powerful neuroleptic, acting rapidly and in a long-term fashion, and, consequently, can be applied in states of agitation of acute and chronic psychoses. For this and other purposes the daily therapeutic dosage can be from about 5 to 50 mg/day in one or more doses, depending upon the severity of the psychoses. The compound of the invention can be administered in any number of conventional forms such as capsules, tablets, pills, in granulated form or as an injectable solution. Many methods for compounding these preparations are well-known to the art. Substances (or carriers) which are inert relative to the compounds of the invention can be used in these preparations, such as lactose, magnesium stearate, starch, talc, cellulose, levilite, alkali metal lauryl-sulphates, saccharose and other vehicles and carriers commonly employed in pharamaceutical preparations. The examples which follow illustrate several possible pharmaceutical preparations.

Series [3] has as its system spontaneous motility of a mouse. Kind of series: reduction of spontaneous motility of a mouse, Activograph Method. It is filed as in vivo. The note with it: ip, intraperitoneal, read-out: ID50, reduction of spontaneous motility. From the text:
(§2) Exp. Ther. 101, pp. 156-162 (1951).

The target of series [4] is dopaminergic D2 receptors (Homo sapiens, UniProt P14416). Kind of series: in-vitro binding to dopaminergic D2 receptors, ligand 3H-spiperone. The note with it: read-out: IC50, D2 receptor binding. The text has this:
(1) The compound bound very strongly in-vitro to dopaminergic D2 receptors.

The test system of series [5] is spontaneous motility of a mouse. The series can be described thus: reduction of spontaneous motility of a mouse, photoelectric method (J. Pharm. Exp. Ther. 101, 156-162, 1951). Format: in vivo. The note with it: intraperitoneal; for ED50: ip. As for the experimental part: as §2
The kinetics of the inhibitor effect of the compound were studied in mice by evaluation of the inhibitor doses 50 at different distances from intraperitoneal injection of the compound. The procedure used was the photoelectric method described in J. Pharm. Exp. Ther. 101, pp. 156-162 (1951). […] Then, the variation in the ID50 between 0.55 and 0.9 indicated persistence of the effect up to 5 hours. The effect then became less clear, but could still be observed more than 5 hours after administration, which is in accordance with the duration attributed to the cataleptigenic effect.

A further series in a line: solubility. Format: physicochemical.
A further series has as its target D1 receptor (Homo sapiens, UniProt P21728). The series can be described thus: in-vitro binding to D1 receptor against 3H-piflutixol. The note with it: second of two values.
Series [6] has as its system rat. Kind of series: cataleptigenic effect, another test. It is filed as in vivo. The note with it: sc, subcutaneous, read-out: cataleptigenic dose 50. As for the experimental part:
(§3) The cataleptigenic dose 50, as determined in accordance with Arz. Forsch. 12, pp. 964-968 (1962), was 5.3 mg/kg subcutaneously in a rat. Another test gave a value which was slightly higher, 8.5 mg/kg subcutaneous, also in a rat.

The subject of series [7] is stereotypies caused in rats by apomorphine. Kind of series: antagonism of stereotypies caused by 1.25 mg/kg intravenous apomorphine (Arzn. Forsch. 10, 1003-1005, 1960). The note with it: compound subcutaneous, apomorphine 1.25 mg/kg intravenous; for ED50: Rattus norvegicus, sc, read-out: ID50, apomorphine stereotypies. Format: in vivo. The text has this: (2) The compound of the invention was a powerful anti-dopaminergic agent at the level of the central nervous system. Indeed, in the test in respect of stereotypies caused in rats by apomorphine, a dopaminergic agonistic agent, the compound antogonized that behavioral response at very low levels. […] […] […] The reference compound is disclosed in U.S. Pat. Nos. 4,186,135 (Example 43) and 4,248,885.

For series [8] the test system is unchanged. The series can be described thus: antagonism of stereotypies caused in rats by 0.5 mg/kg subcutaneous apomorphine (Europ. J. Pharmacol., 50, 291-300, 1978). Format: in vivo. The note with it: rat. As for the experimental part:
as §1, with “(2) The compound of the invention was a powerful anti-dopaminergic agent at the level of the central nervous system. Indeed, in the test in respect of stereotypies caused in rats by apomorphine, a dopaminergic agonistic agent, the compound antogonized that behavioral response at very low levels. Thus, when stereotypies were caused by 0.5 mg/kg of subcutaneous apomorphine, the inhibitor-50 dose of the compound was 0.52 mg/kg intraperitoneally. This test was conducted in accordance with the procedure in Europ. J. Pharmacol., 50, pp. 291-300 (1978). […] The reference compound is disclosed in U.S. Pat. Nos. 4,186,135 (Example 43) and 4,248,885. In” for “In”

In series [9] the test system is rat. The series can be described thus: cataleptigenic effect (Arz. Forsch. 12, 964-968, 1962). It is filed as in vivo. The note with it: sc, subcutaneous. On the procedure:
as §3

For series [10], the system named is stereotypies in relation to amphetamine in a rat. The series can be described thus: antagonism of amphetamine stereotypies in a rat, amphetamine injected intraperitoneally. It is filed as in vivo. The note with it: read-out: ID50, amphetamine stereotypies.
Where [11] appears, read: ip, compound intraperitoneal, apomorphine 0.5 mg/kg subcutaneous, read-out: inhibitor-50 dose (ID50), apomorphine stereotypies.

The structures appear in SMILES notation. Read-outs that look alike come from different tables or passages of the source.

By logP is commonly meant the decadic logarithm of the partition coefficient of the neutral form, usually between octanol and water. A higher logP goes with a more lipophilic compound. As a reminder, the IC50 is the concentration that inhibits the measured activity by half.

Chain of dopaminergic D2 receptors (P14416 whole entry): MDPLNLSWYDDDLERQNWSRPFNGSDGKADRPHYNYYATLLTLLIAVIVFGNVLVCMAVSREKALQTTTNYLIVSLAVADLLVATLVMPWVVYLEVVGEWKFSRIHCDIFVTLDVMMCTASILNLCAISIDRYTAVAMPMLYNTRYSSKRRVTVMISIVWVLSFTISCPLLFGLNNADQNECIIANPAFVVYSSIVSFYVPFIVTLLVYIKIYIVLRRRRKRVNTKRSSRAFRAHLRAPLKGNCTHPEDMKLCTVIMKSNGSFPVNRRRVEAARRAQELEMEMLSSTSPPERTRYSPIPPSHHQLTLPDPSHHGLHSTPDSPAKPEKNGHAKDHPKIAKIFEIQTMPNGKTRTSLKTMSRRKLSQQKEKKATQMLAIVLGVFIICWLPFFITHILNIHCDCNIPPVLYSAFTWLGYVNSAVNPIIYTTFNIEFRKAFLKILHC
Chain of D1 receptor (P21728 whole entry): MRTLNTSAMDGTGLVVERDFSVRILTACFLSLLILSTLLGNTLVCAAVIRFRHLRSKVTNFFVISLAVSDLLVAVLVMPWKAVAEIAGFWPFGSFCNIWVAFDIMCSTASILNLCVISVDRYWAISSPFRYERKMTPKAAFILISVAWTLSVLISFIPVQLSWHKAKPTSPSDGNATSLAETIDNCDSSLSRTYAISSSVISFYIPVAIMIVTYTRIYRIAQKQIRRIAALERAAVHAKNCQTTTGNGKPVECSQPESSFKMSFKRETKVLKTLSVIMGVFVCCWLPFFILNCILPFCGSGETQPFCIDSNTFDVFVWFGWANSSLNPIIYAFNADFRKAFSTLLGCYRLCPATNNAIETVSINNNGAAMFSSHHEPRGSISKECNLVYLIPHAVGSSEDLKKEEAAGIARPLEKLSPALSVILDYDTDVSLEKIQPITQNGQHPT

`CCS(=O)(=O)c1cc2c(c(C(=O)NCC3CCCN3CC3=CCCCC3)c1)OCCCO2` (stereo not shown) [compound of the invention, N-(1-cyclohexenylmethyl-2 pyrrolidylmethyl)-8-ethylsulphonyl-1,5-benzodioxepanne 6-carboxamide]: the ED50 in series [1] (rat, compound subcutaneous, amphetamine 10 mg/kg intravenous, read-out: inhibitor dose 50 (ID50), amphetamine stereotypies) came to 0.062 mg/kg; in series [3] it was 0.93 mg/kg; in series [5] (5 min, 5 minutes after injection, read-out: ID50, reduction of motility after 5 minutes), 0.69 mg/kg; in series [5] (photoelectric method, read-out: ID50, reduction of spontaneous motility), 0.58 mg/kg; in the series with rat [6], 8.5 mg/kg; in series [7], 0.092 mg/kg. For the same compound, the ED50 in series [8] (setting [11]) came out at 0.52 mg/kg; in series [8] (sc, 0.25 h, compound subcutaneous 15 minutes before apomorphine 0.5 mg/kg subcutaneous, read-out: ID50, apomorphine stereotypies, 15 minutes after injection) it was 0.066 mg/kg; in series [8] (sc, compound subcutaneous, apomorphine 0.5 mg/kg subcutaneous, read-out: ID50, apomorphine stereotypies) it was 0.039 mg/kg; with rat [9] (rat, read-out: cataleptigenic dose 50), 5.3 mg/kg; in series [10] (ip, amphetamine intraperitoneal, other experimental conditions) it was 0.4 mg/kg; in series [10] (sc, compound subcutaneous, action already found at the 12th minute), 0.4 mg/kg. The “time to appearance of catalepsy” value with rat [2] was found to be 11 min. The same compound had a logP in “partition coefficient” of 0.519. The “vigilance at higher neuroleptic doses” value in the series with vigilance is on record as “retain a certain degree of vigilance”. Besides, the IC50 in series [4] amounted to 0.00316 µM; on D1 receptor, 63.1 µM. Besides, the “time after administration at which inhibitor effect on motility could still be observed” value in series [5] is given as “more than 5 hours”. The “solubility in dilute acids” value in the series “solubility” (dilute acids) was “Soluble”. The “solubility in cold ethyl acetate” value in “solubility” (ethyl acetate, cold) is reported as “soluble when cold in 30 volumes”. In the series “solubility” (hot ethyl acetate (2 volumes)), the “solubility in hot ethyl acetate” value is listed as “Highly soluble”. The “solubility in hot methanol” value in the series “solubility” (hot methanol (2 volumes)) is “Highly soluble”. Also, in the series “solubility” (methanol, cold), the “solubility in cold methanol” value was “very weakly soluble”. For the same compound, the “ID50, apomorphine stereotypies” value in series [7] (rat) turned out to be 0.082 mg/kg.

`CCN1CCCC1CNC(=O)c1cc(S(=O)(=O)CC)cc2c1OCCCO2` (stereo not shown) [reference compound, N-(1-ethyl-2-pyrrolidinylmethyl) 8-ethylsulphonyl-1,5-benzodioxepanne-6-carboxamide, reference compound]: the ED50 in series [1] (Rattus norvegicus, subcutaneous, amphetamine route and dose not stated, read-out: ID50, amphetamine) stood at 39.4 mg/kg; in [7], 156 mg/kg; in series [8] (setting [11]) it was 36.4 mg/kg; with rat [9] (Rattus norvegicus, which of the two catalepsy tests is not stated, read-out: ED50, cataleptigenic effect), 59.5 mg/kg.
